Measurements as given in patent publication US20170014469A1, “METHODS OF RE[…] LATENT HUMAN IMMUNODEFICIENCY VIRUS” (priority 2013, published 2017).
Entries after “also recorded” stand apart in the source; their conditions may differ. Where two headings read alike, the source gives them in different places.

What was measured:
[1] = tested on: latently HIV-1 infected EF7 and CA5 T cells; settings: PMA stimulation; cited from earlier work
[2] = tested on: latent HIV-1 infection in CA5 T cells; type: cell-based; settings: for HIV-1 reactivation in combination with bryostatin: 24 hour pretreatment with proteasome inhibitor, bryostatin titrated; for HIV-1 reactivation in combination with bryostatin / HIV-1 reactivation in combination with disulfiram: read 24 hours after addition; for HIV-1 reactivation by the proteasome inhibitor by itself: CA5 T cells pretreated 24 hours; for HIV-1 reactivation in combination with disulfiram: 24 hour pretreatment with bortezomib, disulfiram titrated, FIG. 3
Description: (§1) Increased protein-ubiquitination for targeting to the proteasome by the E3 ubiquitin ligase GRAIL is a hallmark of T cell anergy. […] FIG. 2B is a graph showing bortezomib in combination with the activator bryostatin. FIG. 2C is a graph showing bortezomib in combination with the activator prostratin.
CA5 T cells were pretreated for 24 hours with bortezomib. Disulfiram was titrated on control cells or bortezomib pretreated T cells. Reactivation was measured 24 hours after disulfiram addition by determining the percentage of GFP-positive cells using flow cytometric analysis.
CA5 T cells were pretreated for 24 hours with carfilzomib. Bryostatin was titrated on control cells or carfilzomib pretreated T cells. Reactivation was measured 24 hours after bryostatin addition by determining the percentage of GFP-positive cells using flow cytometric analysis.
As mentioned above, T cell anergy has been reported to be associated with a series of changes in the kinase activity profile. A hallmark of T cell anergy is the expression of GRAIL (gene related to anergy in lymphocytes), a trans-membrane RING finger ubiquitin E3 ligase (Anandasabapathy et al., Immunity 18:535-547 (2003)). As other ubiquitin ligases, GRAIL tags proteins for degradation by the proteasome. […] In order to determine this, two FDA-approved proteasome inhibitors, bortezomib and carfilzomib, were tested for their ability to mobilize latent HIV-1 infection, either by themselves, or in combination with potentially therapeutically relevant known HIV-1 reactivating activators, such as bryostatin, prostratin, and disulfiram.

[3] = tested on: latent HIV-1 infection in J2574 reporter T cells; assay: Establishment of latent HIV-1 infection in J2574 reporter T cells after ionomycin pretreatment; type: cell-based; settings: ionomycin pretreatment of J2574 T cells versus untreated control, independent of the level of virus input, FIG. 2A
Description: as §1, with “FIGS. 2A, 2B, and 2C show targeting anergy-related mechanisms alters HIV-1 latency control. […] Increased” for “Increased”
Without being bound by any theory, a working concept derived from the altered cellular phenotype observed in latently HIV-1 infected T cells could be that HIV-1 latency is correlated with the induction of a pseudoanergic state of the host-cell. HIV-1 infection has been reported to be associated with high levels of induced T cell anergy. Exposure to gp120 has been reported to be sufficient to trigger T cell anergy (Bouhdoud et al., Journal of Virology 74:2121-2130 (2000); Dybul et al., J. Immunol. 165:1685-91 (2000); Masci et al., Journal of Leukocyte Biology 74:1117-1124 (2003); and Schols and De Clercq, Journal of Virology 70:4953-4960 (1996)). Also, other retroviruses are reported to induce epigenetic changes in their host cells. Ubiquitin and CDK2 are also known to be involved in T cell anergy (Greenwald et al., Immunity 14:145-155 (2001); and Li et al., Nature Immunology 7:1157-65 (2006)). […]

In the case of `CCCCCCCCCCCCCC(=O)O[C@@H]1[C@@H](C)[C@@]2(O)[C@@H](C=C(CO)C[C@]3(O)C(=O)C(C)=C[C@@H]23)[C@@H]2C(C)(C)[C@]12OC(C)=O` [PMA, phorbol 12-myristate 13-acetate], the “reactivation at the population level” value [1] is listed as over 90%.

For `CC(C)C[C@H](NC(=O)[C@H](CCc1ccccc1)NC(=O)CN1CCOCC1)C(=O)N[C@@H](Cc1ccccc1)C(=O)N[C@@H](CC(C)C)C(=O)[C@@]1(C)CO1` [carfilzomib], the “HIV-1 reactivation in combination with bryostatin” value ([2]; CA5 T cells) was “trigger HIV-1 reactivation”, the “HIV-1 reactivation in combination with bryostatin” value ([2]; CA5 T cells, listed as Carfilzomib) was “potently interacted” and the “HIV-1 reactivation by the proteasome inhibitor by itself” value [2] was “triggered HIV-1 reactivation”.

For `CC(C)C[C@H](NC(=O)[C@H](Cc1ccccc1)NC(=O)c1cnccn1)B(O)O` [bortezomib], the “HIV-1 reactivation in combination with prostratin” value ([2]; 24 hour pretreatment with bortezomib (5 nM), prostratin titrated, CA5 T cells, FIG. 2C) was “interacted with prostratin”, the “HIV-1 reactivation in combination with disulfiram” value ([2]; CA5 T cells) was “synergistically trigger HIV-1 reactivation” and the “HIV-1 reactivation in combination with disulfiram” value ([2]; CA5 T cells, listed as Bortezomib) was “interacted”. For the same molecule, the “activator concentrations required to trigger full HIV-1 reactivation at the population level” value ([2]; 24 hour pretreatment with proteasome inhibitor (bortezomib 5 nM), activators bryostatin or prostratin, CA5 T cells) was “reduces”, the “HIV-1 reactivation in combination with bryostatin” value ([2]; CA5 T cells) was “highly synergistic” and the “latently infected T cells in which latent HIV-1 infection was mobilized” value ([2]; bortezomib 5 nM by itself, CA5 T cells, FIG. 2B) was about 30%. For the same molecule, the “HIV-1 reactivation by the proteasome inhibitor by itself” value [2] was “mobilizes latent HIV-1 infection”.

In the case of `C[C@H](CCC(=O)O)C[C@H](C)C[C@H](C)C(=O)/C=C(\O)[C@H](C)C[C@H](C)C/C=C/[C@@H](C)[C@@H](O)[C@@H](C)[C@@H](O)C[C@@H]1CC[C@@](C)([C@H]2CC[C@@](C)([C@@H](C)O)O2)O1` [ionomycin], the “amount of established stable latent infection events” value [3] is reported as “promotes the establishment of latent HIV-1 infection; also recorded: almost doubled”.
